Results taken from ChEMBL document CHEMBL5107990, “Discovery of 2-vinyl-10H-phenothiazine derivatives as a class of ferroptosis inhibitors with minimal human Ether-a-go-go related gene (hERG) activity for the treatment of DOX-induced cardiomyopathy” (Bioorg Med Chem Lett, 2022).
Blank lines part the entries; values can stand above or below the compound they belong to. Active and inactive are the calls of the source. The rule behind the calls is not given here.

How the values were obtained:
[1] = biological target: Voltage-gated inwardly rectifying potassium channel KCNH2 (Homo sapiens, UniProt Q12809); test: Inhibition of hERG; type: toxicity
[2] = test system: HT-1080; test: Anti-ferroptotic activity against Erastin-induced ferroptosis in human HT-1080 cells; type: functional, cell-based
[3] = test system: MDA-MB-231; test: Anti-ferroptotic activity against Erastin-induced ferroptosis in human MDA-MB-231 cells assessed as cell viability measured by MTT assay; type: functional, cell-based
[4] = test system: Calu-1; test: Anti-ferroptotic activity against Erastin-induced ferroptosis in human Calu-1 cells assessed as decrease in smaller and rounder cells measured by cytocalcein violet 450 staining method; type: functional, cell-based
[5] = test system: Mus musculus; test: Protection against doxorubicin-induced cardiomyopathy model of mouse assessed as decrease in serum ALT level at 10 to 30 mg/kg, ip administered 2 hrs prior to doxorubicin administration; type: functional, organism-based; details: dose 10-30 mg/kg
[6] = test system: HT-1080; test: Antioxidant activity in human HT-1080 cells assessed as reduction in ROS production in cytoplasm at 0.01 to 1 uM measured by H2DCFDA staining method; type: functional, cell-based; details: dose 0.01-1 µM
[7] = test system: Mus musculus; test: Protection against doxorubicin-induced cardiomyopathy model of mouse assessed as […] in collagen outflow at 10 to 30 mg/kg, ip administered 2 hrs prior to doxorubicin administration measured by H and E staining method; type: functional, organism-based; details: dose 10-30 mg/kg
[8] = test system: HT-1080; test: Anti-ferroptotic activity against Erastin-induced ferroptosis in human HT-1080 cells assessed as decrease in MDA level at 0.01 to 1 uM; type: functional, cell-based; details: dose 0.01-1 µM
[9] = test system: Mus musculus; test: Protection against doxorubicin-induced cardiomyopathy model of mouse assessed as decrease in serum CK-MB level at 10 to 30 mg/kg, ip administered 2 hrs prior to doxorubicin administration; type: functional, organism-based; details: dose 10-30 mg/kg
[10] = test system: Mus musculus; test: Protection against doxorubicin-induced cardiomyopathy model of mouse assessed as decrease in serum LDH level at 10 to 30 mg/kg, ip administered 2 hrs prior to doxorubicin administration; type: functional, organism-based; details: dose 10-30 mg/kg
[11] = test system: Calu-1; test: Anti-ferroptotic activity against Erastin-induced ferroptosis in human Calu-1 cells assessed as decrease in smaller and rounder cells measured by 7-AAD staining method; type: functional, cell-based
[12] = test system: HT-1080; test: Antioxidant activity in human HT-1080 cells assessed as reduction in lipid ROS production at 0.01 to 1 uM measured by C11-BODIPY staining method; type: functional, cell-based; details: dose 0.01-1 µM
[13] = test system: ES-2; test: Anti-ferroptotic activity against Erastin-induced ferroptosis in human ES2 cells assessed as cell viability measured by MTT assay; type: functional, cell-based
[14] = test system: Mus musculus; test: Protection against doxorubicin-induced cardiomyopathy model of mouse assessed as […] in collagen outflow at 10 to 30 mg/kg, ip administered 2 hrs prior to doxorubicin administration measured by Sirius red staining method; type: functional, organism-based; details: dose 10-30 mg/kg
[15] = test system: HT-1080; test: Anti-ferroptotic activity against Erastin-induced ferroptosis in human HT-1080 cells assessed as cell viability measured by MTT assay; type: functional, cell-based
[16] = test system: Calu-1; test: Anti-ferroptotic activity against Erastin-induced ferroptosis in human Calu-1 cells assessed as cell viability measured by MTT assay; type: functional, cell-based
[17] = Antioxidant activity assessed as DPPH radical scavenging activity at 10 to 50 uM; type: functional; details: dose 10-50 µM
[18] = test system: HT-1080; test: Anti-ferroptotic activity against Erastin-induced ferroptosis in human HT-1080 cells assessed as decrease in smaller and rounder cells measured by 7-AAD staining method; type: functional, cell-based
[19] = test system: HT-1080; test: Anti-ferroptotic activity against Erastin-induced ferroptosis in human HT-1080 cells assessed as decrease in smaller and rounder cells measured by cytocalcein violet 450 staining method; type: functional, cell-based
[20] = test system: Mus musculus; test: Protection against doxorubicin-induced cardiomyopathy model of mouse assessed as decrease in serum AST level at 10 to 30 mg/kg, ip administered 2 hrs prior to doxorubicin administration; type: functional, organism-based; details: dose 10-30 mg/kg

Chain of Voltage-gated inwardly rectifying potassium channel KCNH2 (Q12809 whole entry): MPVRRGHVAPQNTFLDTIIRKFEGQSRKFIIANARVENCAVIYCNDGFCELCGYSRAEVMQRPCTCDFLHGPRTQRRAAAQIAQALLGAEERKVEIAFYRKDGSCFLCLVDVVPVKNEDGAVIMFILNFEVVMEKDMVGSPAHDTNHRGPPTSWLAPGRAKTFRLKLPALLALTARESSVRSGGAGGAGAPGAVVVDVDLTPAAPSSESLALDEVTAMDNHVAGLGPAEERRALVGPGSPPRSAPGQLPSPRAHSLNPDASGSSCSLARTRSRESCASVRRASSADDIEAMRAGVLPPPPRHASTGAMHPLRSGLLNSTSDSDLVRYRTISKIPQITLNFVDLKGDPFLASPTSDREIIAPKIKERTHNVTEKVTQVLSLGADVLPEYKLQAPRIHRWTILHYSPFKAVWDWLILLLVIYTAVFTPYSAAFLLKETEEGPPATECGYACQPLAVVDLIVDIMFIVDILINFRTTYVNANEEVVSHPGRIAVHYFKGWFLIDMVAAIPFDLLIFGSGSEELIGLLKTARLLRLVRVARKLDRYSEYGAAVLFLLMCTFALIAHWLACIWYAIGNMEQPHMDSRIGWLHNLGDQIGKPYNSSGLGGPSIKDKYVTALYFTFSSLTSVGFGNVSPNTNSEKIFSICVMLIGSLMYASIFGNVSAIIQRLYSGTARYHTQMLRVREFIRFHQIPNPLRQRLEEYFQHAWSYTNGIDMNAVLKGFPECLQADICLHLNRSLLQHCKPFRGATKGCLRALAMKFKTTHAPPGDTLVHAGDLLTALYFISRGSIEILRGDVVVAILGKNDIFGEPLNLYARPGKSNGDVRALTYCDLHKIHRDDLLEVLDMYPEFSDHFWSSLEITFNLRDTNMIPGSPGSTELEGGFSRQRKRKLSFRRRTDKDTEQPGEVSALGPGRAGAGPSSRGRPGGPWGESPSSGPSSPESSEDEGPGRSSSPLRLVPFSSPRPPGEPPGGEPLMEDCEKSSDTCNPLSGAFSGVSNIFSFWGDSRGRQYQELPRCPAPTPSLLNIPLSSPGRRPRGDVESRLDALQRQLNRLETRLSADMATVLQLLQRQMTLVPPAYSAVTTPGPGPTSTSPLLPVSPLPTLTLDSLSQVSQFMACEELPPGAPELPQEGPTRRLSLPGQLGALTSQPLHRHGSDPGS

Structure (SMILES): C=C(c1ccc2c(c1)Nc1ccccc1S2)c1cnc2ccccc2c1
EC50 [2]: 19 nM

Structure (SMILES): C=C(c1ccc2c(c1)Nc1ccccc1S2)c1ccccc1N
EC50 [2]: 29 nM

Structure (SMILES): C=C(c1ccc(C2CCCCC2)cc1)c1ccc2c(c1)Nc1ccccc1S2
EC50 [2]: 39 nM

Structure (SMILES): C=C(c1ccc(N2CCOCC2)cc1)c1ccc2c(c1)Nc1ccccc1S2
EC50 [2]: 39 nM

Structure (SMILES): C=C(c1ccc2c(c1)Nc1ccccc1S2)c1cccc2ccncc12
EC50 [2]: 21 nM

Structure (SMILES): C=C(c1cccc(N)c1)c1ccc2c(c1)Nc1ccccc1S2
EC50 [2]: 17 nM

Structure (SMILES): C=C(c1ccc(-c2ccccc2)cc1)c1ccc2c(c1)Nc1ccccc1S2
EC50 [2]: 41 nM

Structure (SMILES): C=C(c1ccc(C(C)C)cc1)c1ccc2c(c1)Nc1ccccc1S2
EC50 [2]: 40 nM

Structure (SMILES): C=C(c1ccc2c(c1)Nc1ccccc1S2)c1cnc2c(ccn2C)c1
EC50 [2]: 42 nM

Structure (SMILES): C=C(c1ccc(N2CC[C@H](N(C)C)C2)cc1)c1ccc2c(c1)Nc1ccccc1S2
IC50 [1]: 5060 nM
EC50 [2]: 1 nM

Structure (SMILES): C=C(c1cnc2c(c1)CCN2)c1ccc2c(c1)Nc1ccccc1S2
EC50 [2]: 89 nM

Structure (SMILES): C=C(c1ccc2c(c1)Nc1ccccc1S2)c1cccc2cnccc12
EC50 [2]: 26 nM

Structure (SMILES): C=C(c1ccc(C(F)(F)F)cc1)c1ccc2c(c1)Nc1ccccc1S2
EC50 [2]: 11 nM

Structure (SMILES): C=C(c1ccc(N2C[C@@H]3C[C@H]2CN3C)cc1)c1ccc2c(c1)Nc1ccccc1S2
IC50 [1]: 12000 nM
EC50 [2]: 3 nM

Structure (SMILES): C=C(c1ccc(NC(N)=O)cc1)c1ccc2c(c1)Nc1ccccc1S2
EC50 [3]: 1.01 nM
Activity [4]: Active
Activity [5]: Active
Activity [6]: Active
IC50 [1]: > 30000 nM
Activity [7]: Active
EC50 [2]: 1 nM
Activity [8]: Active
Activity [9]: Active
Activity [10]: Active
Activity [11]: Active
Activity [12]: Active
EC50 [13]: 1.81 nM
Activity [14]: Active
EC50 [15]: 1.61 nM
EC50 [16]: 3.36 nM
Activity [17]: Active
Activity [18]: Active
Activity [19]: Active
Activity [20]: Active

Structure (SMILES): C=C(c1ccc(OC)cc1)c1ccc2c(c1)Nc1ccccc1S2
EC50 [2]: 13 nM

Structure (SMILES): C=C(c1ccc(NC(C)=O)cc1)c1ccc2c(c1)Nc1ccccc1S2
IC50 [1]: 22000 nM
EC50 [2]: 4 nM

More lines, in order of falling EC50 [2], values ahead:

EC50 [2]: 58 nM
Structure (SMILES): C=C(c1ccc2c(c1)Nc1ccccc1S2)c1cnc2c(cnn2C)c1

EC50 [2]: 37 nM
Structure (SMILES): C=C(c1ccc2c(c1)Nc1ccccc1S2)c1ccc2c(c1)OCCO2

EC50 [2]: 33 nM
Structure (SMILES): C=C(c1ccc2c(c1)Nc1ccccc1S2)c1ccc2c(c1)SCC(=O)N2

EC50 [2]: 25 nM
Structure (SMILES): C=C(c1ccc2c(c1)Nc1ccccc1S2)c1cncc2ccccc12

EC50 [2]: 20 nM
Structure (SMILES): C=C(c1ccc(NC(=O)N(C)C)cc1)c1ccc2c(c1)Nc1ccccc1S2

EC50 [2]: 10 nM
Structure (SMILES): C=C(c1ccccc1)c1ccc2c(c1)Nc1ccccc1S2

EC50 [2]: 8 nM
Structure (SMILES): C=C(c1ccc(N)cc1)c1ccc2c(c1)Nc1ccccc1S2

EC50 [2]: 3 nM
Structure (SMILES): CC(c1ccc(N2C[C@@H]3C[C@H]2CN3C)cc1)c1ccc2c(c1)Nc1ccccc1S2 (stereo partly drawn)
IC50 [1]: 1980 nM
